Our source for the EC50 and inhibition values is patent US10206909B2, “3-(1H-pyrrolo[2,3-B]pyridin-2-yl)-1H-pyrazolo[4,3-B]pyridines and therapeutic uses thereof” (Samumed, LLC, priority 2015, dated 2019).

Holding throughout (format): cell-based
The test system of one assay is SW480 colon cancer cells. The experiment in a line: Cell viability assay (CellTiter-Blue). The conditions noted are these: Homo sapiens; for EC50: 96 h, SW480 cell viability, four days, CellTiter-Blue; for inhibition at 10 µM: given where EC50 >10 μM, SW480 viability, read-out: percent inhibition at 10 μM. The gist of the method:
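SW480 colon cancer cells (~2×10^3/well) exposed to 8-point 1:3 dilutions from 10 μM to 0.0045 μM for four days at 37 °C/5% CO2. Viability read by resazurin (CellTiter-Blue) fluorescence after ~3 h, Ex 560/Em 590 nm. EC50 from non-linear regression; percent inhibition at 10 μM given when EC50 >10 μM.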
(In general: Alamar Blue is a resazurin reagent that responds to reducing activity.)

In assay [1] the test system is primary human fibroblasts derived from IPF patients (LL29 cells). The experiment in a line: Inhibition of the fibrotic process: αSMA staining in TGF-β1 treated fibroblasts. The following applies: Fibroblast; for EC50: 96 h, LL29 cells, TGF-β1 20 ng/mL, 4 days, % αSMA positive cells; for inhibition at 10 µM: given where EC50 >10 μM, LL29, αSMA, read-out: percent inhibition at 10 μM. The gist of the method:
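IPF-derived LL29 fibroblasts in F12 with 1% FBS dosed with compound (11-point, 10 μM to 1.87 nM, 0.1% DMSO), then 20 ng/mL TGF-β1 after 1 h, and cultured 4 days at 37 °C. αSMA-positive cell fraction imaged after excluding SYTOX-positive cells, normalized to TGF-β1/DMSO wells; EC50 by non-linear regression, % inhibition at 10 μM if EC50 >10 μM.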

Another assay relates to IL-6 (THP-1 cells). The experiment in a line: IL-6 inhibition in LPS-stimulated THP-1 cells (HTRF). The following applies: Homo sapiens; for EC50: THP-1 cells, LPS 500 ng/mL, 22 hours, IL6 HTRF; for inhibition at 10 µM: given where EC50 >10 μM, THP-1, IL6, read-out: percent inhibition at 10 μM. The gist of the method:
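THP-1 cells, pre-cultured 24 h in 1% FBS, were preincubated 2 h with compound over a 10-point 1:3 series from 10 μM (0.1% DMSO). They were then stimulated with 500 ng/mL LPS for 22 h at 37° C. IL-6 was read by HTRF 665/620 nm ratio, and EC50 was fitted by four-parameter regression against DMSO; above 10 μM, % inhibition at 10 μM is given.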
In general terms: In TR-FRET formats the signal depends on donor and acceptor labels being close together.

With `c1cc(-c2ccnc3[nH]c(-c4n[nH]c5ccc(-c6cncc(CNCC7CCCC7)c6)nc45)cc23)ccn1` [Compound 137, 1-Cyclopentyl-N-((5-(3-(4-(pyridin-4-yl)-1H-pyrrolo[2,3-b]pyridin-2-yl)-1H-pyrazolo[4,3-b]pyridin-5-yl)pyridin-3-yl)methyl)methanamine], the concentration giving a half-maximal response (EC50) in the assay on SW480 colon cancer cells was 3.72 µM; in assay [1], over 10 µM; in the assay on IL-6 (THP-1 cells), over 10 µM. For the same compound, the results for the inhibition at 10 µM (in assay [1]; in the assay on IL-6 (THP-1 cells)) were 23.8% and 40.8%, respectively.
In the case of `Cc1ccncc1-c1ccc2[nH]nc(-c3cc4c(N5CCCCC5)ccnc4[nH]3)c2n1` [Compound 173, 5-(4-Methylpyridin-3-yl)-3-(4-(piperidin-1-yl)-1H-pyrrolo[2,3-b]pyridin-2-yl)-1H-pyrazolo[4,3-b]pyridine], the figures for the EC50 (in the assay with SW480 colon cancer cells; in assay [1]; with IL-6 (THP-1 cells)) were over 10 µM, over 10 µM and 0.967 µM, respectively. For the same compound, the inhibition at 10 µM with SW480 colon cancer cells amounted to 49.2%; in assay [1], 10.6%.
As for `CN(C)Cc1cncc(-c2ccc3[nH]nc(-c4cc5c(N6CCCCC6)ccnc5[nH]4)c3n2)c1` [Compound 181, N,N-Dimethyl-1-(5-(3-(4-(piperidin-1-yl)-1H-pyrrolo[2,3-b]pyridin-2-yl)-1H-pyrazolo[4,3-b]pyridin-5-yl)pyridin-3-yl)methanamine], the EC50 in the assay on SW480 colon cancer cells is over 10 µM; in assay [1], 7.78 µM; in the assay on IL-6 (THP-1 cells), over 10 µM. The inhibition at 10 µM with SW480 colon cancer cells turned out to be 47.5%; in the assay on IL-6 (THP-1 cells), 29.2%.
Take `c1cc(N2CCCCC2)c2cc(-c3n[nH]c4ccc(-c5cncc(CN6CCCCC6)c5)nc34)[nH]c2n1` [Compound 183, 3-(4-(Piperidin-1-yl)-1H-pyrrolo[2,3-b]pyridin-2-yl)-5-(5-(piperidin-1-ylmethyl)pyridin-3-yl)-1H-pyrazolo[4,3-b]pyridine]: the EC50 (in the assay on SW480 colon cancer cells; in assay [1]; in the assay with IL-6 (THP-1 cells)) was over 10 µM throughout. Besides, the results for the inhibition at 10 µM (with SW480 colon cancer cells; in assay [1]; in the assay on IL-6 (THP-1 cells)) were 45.5%, 0% and 18.2%, respectively.
Take `CCCCC(=O)Nc1cncc(-c2ccc3[nH]nc(-c4cc5c(N6CCCCC6)ccnc5[nH]4)c3n2)c1` [Compound 187, N-(5-(3-(4-(Piperidin-1-yl)-1H-pyrrolo[2,3-b]pyridin-2-yl)-1H-pyrazolo[4,3-b]pyridin-5-yl)pyridin-3-yl)pentanamide]: the values for the EC50 (in the assay with SW480 colon cancer cells; in assay [1]; in the assay with IL-6 (THP-1 cells)) were 3.53 µM, 4.88 µM and 0.34 µM, respectively.
In the case of `FC1(F)CCN(Cc2cncc(-c3ccc4[nH]nc(-c5cc6c(N7CCCCC7)ccnc6[nH]5)c4n3)c2)C1` [Compound 194, 5-(5-((3,3-Difluoropyrrolidin-1-yl)methyl)pyridin-3-yl)-3-(4-(piperidin-1-yl)-1H-pyrrolo[2,3-b]pyridin-2-yl)-1H-pyrazolo[4,3-b]pyridine], the EC50 in the assay with SW480 colon cancer cells is over 10 µM; in assay [1], 2.55 µM; with IL-6 (THP-1 cells), 6.95 µM. The inhibition at 10 µM with SW480 colon cancer cells is 28.3%.
Take `c1ncc(-c2ccc3[nH]nc(-c4cc5c(N6CCCCC6)ccnc5[nH]4)c3n2)cn1` [Compound 195, 3-(4-(Piperidin-1-yl)-1H-pyrrolo[2,3-b]pyridin-2-yl)-5-(pyrimidin-5-yl)-1H-pyrazolo[4,3-b]pyridine]: the 50% effective concentration (EC50) in the assay with SW480 colon cancer cells is over 10 µM; in assay [1], 2.04 µM; with IL-6 (THP-1 cells) it was over 10 µM. For the same compound, the inhibition at 10 µM in the assay with SW480 colon cancer cells stood at 22.9%; in the assay with IL-6 (THP-1 cells) it was 26%.
As to `c1ccc(-c2ccc3[nH]nc(-c4cc5c(N6CCCCC6)ccnc5[nH]4)c3n2)nc1` [Compound 196, 3-(4-(Piperidin-1-yl)-1H-pyrrolo[2,3-b]pyridin-2-yl)-5-(pyridin-2-yl)-1H-pyrazolo[4,3-b]pyridine], the EC50 was over 10 µM in the assay with SW480 colon cancer cells, 2.05 µM in assay [1] and over 10 µM in the assay on IL-6 (THP-1 cells). Also, the inhibition at 10 µM in the assay with SW480 colon cancer cells worked out at 2.4%; with IL-6 (THP-1 cells), 46.5%.
For the compound `CC(C)CC(=O)Nc1cncc(-c2ccc3[nH]nc(-c4cc5c(N6CCN(C)CC6)ccnc5[nH]4)c3n2)c1` [Compound 226, 3-Methyl-N-(5-(3-(4-(4-methylpiperazin-1-yl)-1H-pyrrolo[2,3-b]pyridin-2-yl)-1H-pyrazolo[4,3-b]pyridin-5-yl)pyridin-3-yl)butanamide], the EC50 with SW480 colon cancer cells came to 1.55 µM; in assay [1], 1.76 µM; with IL-6 (THP-1 cells) it was 3.27 µM.
The like results for `CN1CCN(c2ccnc3[nH]c(-c4n[nH]c5ccc(-c6cncc(NC(=O)C(C)(C)C)c6)nc45)cc23)CC1` [Compound 232, N-(5-(3-(4-(4-Methylpiperazin-1-yl)-1H-pyrrolo[2,3-b]pyridin-2-yl)-1H-pyrazolo[4,3-b]pyridin-5-yl)pyridin-3-yl)pivalamide] were, in that order, 1.44 µM, 0.795 µM and 3.43 µM.
Turning to `CN1CCN(c2ccnc3[nH]c(-c4n[nH]c5ccc(-c6cncc(NC(=O)c7ccccc7)c6)nc45)cc23)CC1` [Compound 235, N-(5-(3-(4-(4-Methylpiperazin-1-yl)-1H-pyrrolo[2,3-b]pyridin-2-yl)-1H-pyrazolo[4,3-b]pyridin-5-yl)pyridin-3-yl)benzamide], the results for the EC50 (in the assay on SW480 colon cancer cells; in assay [1]; with IL-6 (THP-1 cells)) were 3.27 µM, 3.22 µM and over 10 µM, respectively. Also, the inhibition at 10 µM in the assay with IL-6 (THP-1 cells) was found to be 48.1%.
The matching figures for `CN1CCN(c2ccnc3[nH]c(-c4n[nH]c5ccc(-c6cncc(NC(=O)CC(C)(C)C)c6)nc45)cc23)CC1` [Compound 240, 3,3-Dimethyl-N-(5-(3-(4-(4-methylpiperazin-1-yl)-1H-pyrrolo[2,3-b]pyridin-2-yl)-1H-pyrazolo[4,3-b]pyridin-5-yl)pyridin-3-yl)butanamide]: 2 µM, 0.67 µM, over 10 µM and 43.5%.
Turning to `c1cncc(-c2ccc3[nH]nc(-c4cc5cccnc5[nH]4)c3n2)c1` [Compound 256, 5-(Pyridin-3-yl)-3-(1H-pyrrolo[2,3-b]pyridin-2-yl)-1H-pyrazolo[4,3-b]pyridine], the EC50 is over 10 µM with SW480 colon cancer cells, 0.308 µM in assay [1] and 0.002 µM with IL-6 (THP-1 cells). Further, the inhibition at 10 µM with SW480 colon cancer cells was determined as 23.2%.
`CCNCc1cncc(-c2ccc3[nH]nc(-c4cc5cccnc5[nH]4)c3n2)c1` [Compound 258, N-((5-(3-(1H-Pyrrolo[2,3-b]pyridin-2-yl)-1H-pyrazolo[4,3-b]pyridin-5-yl)pyridin-3-yl)methyl)ethanamine]: the EC50 is 2.81 µM with SW480 colon cancer cells, 1.58 µM in assay [1] and over 10 µM in the assay with IL-6 (THP-1 cells). Also, the inhibition at 10 µM in the assay on IL-6 (THP-1 cells) was 4.6%.
Take `CN(C)Cc1cncc(-c2ccc3[nH]nc(-c4cc5cccnc5[nH]4)c3n2)c1` [Compound 265, 1-(5-(3-(1H-Pyrrolo[2,3-b]pyridin-2-yl)-1H-pyrazolo[4,3-b]pyridin-5-yl)pyridin-3-yl)-N,N-dimethylmethanamine]: the EC50 with SW480 colon cancer cells is 4.21 µM; in assay [1], 3.2 µM; in the assay with IL-6 (THP-1 cells), 0.653 µM.
On to `O=C(Nc1cncc(-c2ccc3[nH]nc(-c4cc5cccnc5[nH]4)c3n2)c1)C1CCCCC1` [Compound 275, N-(5-(3-(1H-Pyrrolo[2,3-b]pyridin-2-yl)-1H-pyrazolo[4,3-b]pyridin-5-yl)pyridin-3-yl)cyclohexanecarboxamide], for which the half-maximal effective concentration (EC50) in the assay with SW480 colon cancer cells was over 10 µM; in assay [1], over 10 µM; with IL-6 (THP-1 cells) it was 0.157 µM. Also, the inhibition at 10 µM in the assay with SW480 colon cancer cells was found to be 10.5%; in assay [1], 0%.
On to `FC1(F)CCN(Cc2cncc(-c3ccc4[nH]nc(-c5cc6cccnc6[nH]5)c4n3)c2)C1` [Compound 278, 5-(5-((3,3-Difluoropyrrolidin-1-yl)methyl)pyridin-3-yl)-3-(1H-pyrrolo[2,3-b]pyridin-2-yl)-1H-pyrazolo[4,3-b]pyridine], for which the results for the EC50 (in the assay with SW480 colon cancer cells; in assay [1]; in the assay with IL-6 (THP-1 cells)) were 0.345 µM, 0.086 µM and 0.107 µM, respectively.
Consider `c1cnc2[nH]c(-c3n[nH]c4ccc(-c5cncnc5)nc34)cc2c1` [Compound 279, 5-(Pyrimidin-5-yl)-3-(1H-pyrrolo[2,3-b]pyridin-2-yl)-1H-pyrazolo[4,3-b]pyridine], for which the results for the EC50 (with SW480 colon cancer cells; in assay [1]; with IL-6 (THP-1 cells)) were over 10 µM, over 10 µM and 0.003 µM, respectively. Besides, the inhibition at 10 µM turned out to be 14.3% in the assay with SW480 colon cancer cells and 0% in assay [1].
For the compound `CN(C)c1cncc(-c2ccc3[nH]nc(-c4cc5c(-c6ccoc6)ccnc5[nH]4)c3n2)c1` [Compound 315, 5-(3-(4-(Furan-3-yl)-1H-pyrrolo[2,3-b]pyridin-2-yl)-1H-pyrazolo[4,3-b]pyridin-5-yl)-N,N-dimethylpyridin-3-amine], the values for the EC50 (in the assay with SW480 colon cancer cells; in assay [1]; in the assay on IL-6 (THP-1 cells)) were over 10 µM, 5.53 µM and 0.418 µM, respectively. Also, in the assay on SW480 colon cancer cells, the inhibition at 10 µM amounted to 6.1%.

In general, EC50 refers to the concentration at which the effect is half-maximal. Low readings indicate an effect from little substance, high ones a need for much substance. The inhibition is the change of the read-out against control, counted positive when it falls.
